Experimental data published in paper PMC11124822, “Discovery and Anticancer Screening of Novel Oxindole-Based Derivative Bearing Pyridyl Group as Potent and Selective Dual FLT3/CDK2 Kinase Inhibitor” (Pharmaceuticals, 2024).

What was measured:
CCRF-CEM = assay: NCI-60 antiproliferative screen (SRB); assay type: cell-based, human; details: Homo sapiens; 10 µM single dose, 48 h; CCRF-CEM (Leukemia); read-out: Growth inhibition (%)
MOLT-4 = assay: NCI-60 antiproliferative screen (SRB); assay type: cell-based; details: Homo sapiens; 10 µM single dose, 48 h; MOLT-4 (Leukemia); read-out: Growth inhibition (%)
A549/ATCC = assay: NCI-60 antiproliferative screen (SRB); assay type: cell-based, human; details: Homo sapiens; 10 µM single dose, 48 h; A549/ATCC (NSCLC); read-out: Growth inhibition (%)
EKVX = assay: NCI-60 antiproliferative screen (SRB); assay type: cell-based, human; details: Homo sapiens; 10 µM single dose, 48 h; EKVX (NSCLC); read-out: Growth inhibition (%)
HOP-62 = assay: NCI-60 antiproliferative screen (SRB); assay type: cell-based, human; details: Homo sapiens; 10 µM single dose, 48 h; HOP-62 (NSCLC); read-out: Growth inhibition (%)
HOP-92 = assay: NCI-60 antiproliferative screen (SRB); assay type: cell-based, human; details: Homo sapiens; 10 µM single dose, 48 h; HOP-92 (NSCLC); read-out: Growth inhibition (%)
NCI-H226 = assay: NCI-60 antiproliferative screen (SRB); assay type: cell-based, human; details: Homo sapiens; 10 µM single dose, 48 h; NCI-H226 (NSCLC); read-out: Growth inhibition (%)
HCT-116 = assay: NCI-60 antiproliferative screen (SRB); assay type: cell-based, human; details: Homo sapiens; 10 µM single dose, 48 h; HCT-116 (Colon); read-out: Growth inhibition (%)
HT29 = assay: NCI-60 antiproliferative screen (SRB); assay type: cell-based, human; details: Homo sapiens, HT-29; 10 µM single dose, 48 h; HT29 (Colon); read-out: Growth inhibition (%)
KM12 = assay: NCI-60 antiproliferative screen (SRB); assay type: cell-based, human; details: Homo sapiens; 10 µM single dose, 48 h; KM12 (Colon); read-out: Growth inhibition (%)
SF-295 = assay: NCI-60 antiproliferative screen (SRB); assay type: cell-based, human; details: Homo sapiens; 10 µM single dose, 48 h; SF-295 (CNS); read-out: Growth inhibition (%)
SNB-19 = assay: NCI-60 antiproliferative screen (SRB); assay type: cell-based, human; details: Homo sapiens; 10 µM single dose, 48 h; SNB-19 (CNS); read-out: Growth inhibition (%)
U251 = assay: NCI-60 antiproliferative screen (SRB); assay type: cell-based, human; details: Homo sapiens, U-251; 10 µM single dose, 48 h; U251 (CNS); read-out: Growth inhibition (%)
LOX IMVI = assay: NCI-60 antiproliferative screen (SRB); assay type: cell-based, human; details: Homo sapiens; 10 µM single dose, 48 h; LOX IMVI (Melanoma); read-out: Growth inhibition (%)
SK-MEL-28 = assay: NCI-60 antiproliferative screen (SRB); assay type: cell-based, human; details: Homo sapiens; 10 µM single dose, 48 h; SK-MEL-28 (Melanoma); read-out: Growth inhibition (%)
SK-MEL-5 = assay: NCI-60 antiproliferative screen (SRB); assay type: cell-based, human; details: Homo sapiens; 10 µM single dose, 48 h; SK-MEL-5 (Melanoma); read-out: Growth inhibition (%)
IGROV1 = assay: NCI-60 antiproliferative screen (SRB); assay type: cell-based, human; details: Homo sapiens, IGROV-1; 10 µM single dose, 48 h; IGROV1 (Ovarian); read-out: Growth inhibition (%)
OVCAR-8 = assay: NCI-60 antiproliferative screen (SRB); assay type: cell-based, human; details: Homo sapiens; 10 µM single dose, 48 h; OVCAR-8 (Ovarian); read-out: Growth inhibition (%)
SK-OV-3 = assay: NCI-60 antiproliferative screen (SRB); assay type: cell-based, human; details: Homo sapiens; 10 µM single dose, 48 h; SK-OV-3 (Ovarian); read-out: Growth inhibition (%)
CAKI-1 = assay: NCI-60 antiproliferative screen (SRB); assay type: cell-based, human; details: Homo sapiens; 10 µM single dose, 48 h; CAKI-1 (Renal); read-out: Growth inhibition (%)
RXF 393 = assay: NCI-60 antiproliferative screen (SRB); assay type: cell-based, human; details: Homo sapiens; 10 µM single dose, 48 h; RXF 393 (Renal); read-out: Growth inhibition (%)
SN12C = assay: NCI-60 antiproliferative screen (SRB); assay type: cell-based, human; details: Homo sapiens; 10 µM single dose, 48 h; SN12C (Renal); read-out: Growth inhibition (%)
TK-10 = assay: NCI-60 antiproliferative screen (SRB); assay type: cell-based, human; details: Homo sapiens; 10 µM single dose, 48 h; TK-10 (Renal); read-out: Growth inhibition (%)
PC-3 = assay: NCI-60 antiproliferative screen (SRB); assay type: cell-based, human; details: Homo sapiens; 10 µM single dose, 48 h; PC-3 (Prostate); read-out: Growth inhibition (%)
MDA-MB-231 = assay: NCI-60 antiproliferative screen (SRB); assay type: cell-based, human; details: Homo sapiens; 10 µM single dose, 48 h; MDA-MB-231 (Breast); read-out: Growth inhibition (%)
T-47D = assay: NCI-60 antiproliferative screen (SRB); assay type: cell-based, human; details: Homo sapiens, T47D; 10 µM single dose, 48 h; T-47D (Breast); read-out: Growth inhibition (%)
MDA-MB-468 = assay: NCI-60 antiproliferative screen (SRB); assay type: cell-based, human; details: Homo sapiens; 10 µM single dose, 48 h; MDA-MB-468 (Breast); read-out: Growth inhibition (%)
[1] = tested on: NCI-60 human cancer cell lines; assay: NCI-60 screen, full panel summary; assay type: cell-based; details: 10 µM single dose; for Mean Growth Percent: all NCI-60 cell lines
Procedure: In a comprehensive test, compounds were assayed at a single dose concentration (10^−5 M) in the full panel of NCI-60 cancer cell lines.

| Compound | inhibition at 10 µM (CCRF-CEM) | inhibition at 10 µM (MOLT-4) | inhibition at 10 µM (A549/ATCC) | inhibition at 10 µM (EKVX) | inhibition at 10 µM (HOP-62) | inhibition at 10 µM (HOP-92) | inhibition at 10 µM (NCI-H226) | inhibition at 10 µM (HCT-116) | inhibition at 10 µM (HT29) | inhibition at 10 µM (KM12) | inhibition at 10 µM (SF-295) | inhibition at 10 µM (SNB-19) | inhibition at 10 µM (U251) | inhibition at 10 µM (LOX IMVI) | inhibition at 10 µM (SK-MEL-28) | inhibition at 10 µM (SK-MEL-5) | inhibition at 10 µM (IGROV1) | inhibition at 10 µM (OVCAR-8) | inhibition at 10 µM (SK-OV-3) | inhibition at 10 µM (CAKI-1) | also measured |
| --- | --- | --- | --- | --- | --- | --- | --- | --- | --- | --- | --- | --- | --- | --- | --- | --- | --- | --- | --- | --- | --- |
| O=C1Nc2cc(Cl)ccc2C1=Cc1ccc(OCc2ccncc2)cc1 (mixture of isomers) [Compound 5p, (E/Z)-6-Chloro-3-[4-(pyridin-4-ylmethoxy)benzylidene]indolin-2-one] | 34.4% | 79% | 27.9% | 45.1% | 21.4% | 49.6% | 49.5% | 61.5% | 37.8% | 47.8% | 32.2% | 28.7% | 64.4% | 65.2% | -10.9% | 65% | 67.9% | 61.3% | 15.5% | 52.8% | inhibition at 10 µM (RXF 393): 67.4%; inhibition at 10 µM (SN12C): 34.6%; inhibition at 10 µM (TK-10): -0.51%; inhibition at 10 µM (PC-3): 45%; inhibition at 10 µM (MDA-MB-231): 32.7%; inhibition at 10 µM (T-47D): 67.1%; inhibition at 10 µM (MDA-MB-468): 65.6%; Positive Cytostatic Effect (cell lines with percent growth from 0 to 50 / total number of cell lines) [1]: 21/59; Positive Cytotoxic Effect (cell lines with percent growth of <0 / total number of cell lines) [1]: 0/59; Sensitive/Total Cell Lines [1]: 21/59; The Most Sensitive Cell Line [1]: SF-539; number of cell lines with cytostatic effects [1]: 21; Mean Growth Percent [1]: 41.27; melting point: 233 to 235 °C |
| O=C1Nc2ccc(Cl)cc2C1=Cc1ccc(OCc2ccccn2)cc1 (mixture of isomers) [Compound 5g, (E/Z)-5-Chloro-3-[4-(pyridin-2-ylmethoxy)benzylidene] indolin-2-one] | 16.8% | 53.1% | 35.6% | 34.3% | 54.4% | 27.9% | 98.7% | 71.5% | 32.5% | 21.2% | 15.5% | 49.3% | 76.3% | 43.5% | -0.48% | 10.5% | 45.4% | 54.1% | 10.8% | 38.4% | inhibition at 10 µM (SN12C): 55.5%; inhibition at 10 µM (TK-10): 9.89%; inhibition at 10 µM (PC-3): 37.9%; inhibition at 10 µM (MDA-MB-231): 78.3%; inhibition at 10 µM (T-47D): 31%; inhibition at 10 µM (MDA-MB-468): 49.6%; Positive Cytostatic Effect (cell lines with percent growth from 0 to 50 / total number of cell lines) [1]: 17/59; Positive Cytotoxic Effect (cell lines with percent growth of <0 / total number of cell lines) [1]: 1/59; Sensitive/Total Cell Lines [1]: 18/59; The Most Sensitive Cell Line [1]: OVCAR-4; number of cell lines with cytostatic effects [1]: 17; number of cell lines with cytotoxic effects [1]: 1; Mean Growth Percent [1]: 38.63; melting point: 219 to 220 °C |
| O=C1Nc2cc(Cl)ccc2C1=Cc1ccc(OCc2ccccc2)cc1 (mixture of isomers) [Compound 5d, (E/Z)-3-[4-(Benzyloxy)benzylidene]-6-chloroindolin-2-one] | -2.18% | 0.86% | -4.59% | -0.31% | 3.85% | -8.67% | 7.13% | 2.33% | -5.27% | 4.92% | -14.7% | -3.09% | -4.25% | 7.32% | -2.97% | 2.83% | 8.41% | -0.41% | -3.01% | 10.7% | inhibition at 10 µM (RXF 393): -14.2%; inhibition at 10 µM (SN12C): 4.03%; inhibition at 10 µM (TK-10): -54%; inhibition at 10 µM (PC-3): 11.8%; inhibition at 10 µM (MDA-MB-231): -3.65%; inhibition at 10 µM (T-47D): 4.32%; inhibition at 10 µM (MDA-MB-468): 1.52%; Positive Cytostatic Effect (cell lines with percent growth from 0 to 50 / total number of cell lines) [1]: 0/59; Positive Cytotoxic Effect (cell lines with percent growth of <0 / total number of cell lines) [1]: 0/59; Sensitive/Total Cell Lines [1]: 0/59; antiproliferative activity (in words) [1]: weak antiproliferative activity; Mean Growth Percent [1]: 0.13; inhibition at 10 µM ([1]; Homo sapiens, read-out: Range of Growth Inhibition on All Cells): -54 to 38.4%; melting point: 259 to 261 °C |
| O=C1Nc2ccc(F)cc2C1=Cc1ccc(OCc2ccncc2)cc1 (mixture of isomers) [Compound 5n, (E/Z)-5-Fluoro-3-[4-(pyridin-4-ylmethoxy)benzylidene] indolin-2-one] | 40.6% | 76.7% | 29.8% | 52.2% | 17% | 36.9% | 44.5% | 56.1% | 36.4% | 69.8% | 51.7% | 60.5% | 61.3% | 67.3% | -9.39% | 93.1% | 64.7% | 56.2% | 13.7% | 62.3% | inhibition at 10 µM (RXF 393): 47.6%; inhibition at 10 µM (SN12C): 41.3%; inhibition at 10 µM (TK-10): 29.9%; inhibition at 10 µM (PC-3): 47.4%; inhibition at 10 µM (MDA-MB-231): 20.7%; inhibition at 10 µM (T-47D): 64.3%; inhibition at 10 µM (MDA-MB-468): 61.8%; Positive Cytostatic Effect (cell lines with percent growth from 0 to 50 / total number of cell lines) [1]: 26/59; Positive Cytotoxic Effect (cell lines with percent growth of <0 / total number of cell lines) [1]: 0/59; Sensitive/Total Cell Lines [1]: 26/59; The Most Sensitive Cell Line [1]: SK-MEL-5; number of cell lines with cytostatic effects [1]: 26; Mean Growth Percent [1]: 46.02; melting point: 233 to 235 °C |
